Where two headings read alike, the source gives them in different places.
Tests used:
[1] = Body weight loss in high-fat diet C57bl/6 mice; type: in vivo; conditions: once daily, 28 days, oral gavage, male C57bl/6 mice on high-fat diet, BW loss relative to pretreatment
Text: Ten to twelve weeks old male C57bl/6 mice are obtained from commercial vendors, and placed on high-fat diet (60% kcal fat) for at least 15 weeks. Treatment with MetAP2 inhibitors is initiated when the average body weight reaches approximately 50 g. The MetAP2 inhibitors are formulated in an aqueous solution of 0.5% methyl cellulose and administered through oral gavage. Control animals receive the equivalent volume of aqueous 0.5% methyl cellulose solution without a MetAP2 inhibitor. Body weight (BW) and food intake are recorded daily, and efficacy is calculated individually as a percentage of BW loss relative to the pretreatment values. Depending on the study design, the treatment is continued for 12, 14 or 28 days. In some studies, indirect calorimetry or body composition are determined at the end of the treatment.
TABLE 2 lists body weight loss (BWL) in mice following treatment with some of the compounds shown in the examples. The compounds shown in TABLE 2 were tested in accordance with the BWL protocol described in the specification beginning at page 36, using the dose, dosing regimen (frequency), and treatment duration indicated in table.

[2] = Hypoglycemic activity in KKA^y mice; type: in vivo; conditions: 10 mg/kg once daily oral gavage, 4-week treatment, male KKA^y mice, mean±SD of 8 animals, p < 0.025 vs. control
Description: Six-week-old male KKA^y mice are obtained from commercial vendors and placed on standard chow. Treatment with a MetAP2 inhibitor is initiated after 8-day acclimization. The MetAP2 inhibitor is formulated in an aqueous 0.5% methylcellulose solution, which is administered once daily through oral gavage. Control animals are treated with the equivalent volume of aqueous 0.5% methylcellulose solution without the compound. After 4 weeks, blood is collected from the tail vein of each of the mice. Glycated hemoglobin levels are measured using a Tosoh HLC-723G8 automated glycohemoglobin analyzer, and plasma glucose levels are measured using a Hitachi model 7180 automated glucose analyzer. For evaluation of the hypoglycemic activity of the MetAP2 inhibitor, statistical differences between control- and compound-treated groups are analyzed using a one-tailed Williams test.
TABLE 3 lists glycated hemoglobin (GHb) and plasma glucose (PG) levels in KKA^y mice after a 4-week treatment with the compound shown in Example 1. The study was conducted in accordance with the protocol described in the specification beginning at page 37, using the dose indicated in table. Values are indicated by mean±standard deviation of 8 animals in each group.

[3] = target: T1, MetAP2 (Homo sapiens, UniProt P50579); experiment: Enzyme assay: inhibition of MetAP2 (Met-AMC substrate, fluorescence); type: biochemical; design: made in house; host or cells: Spodoptera frugiperda Sf9 cells (baculovirus, pFastBac)
Description: DNA encoding the full-length sequence of human MetAP2 enzyme is amplified by PCR and cloned into a pFastBac expression vector (Invitrogen). Recombinant baculovirus incorporating the MetAP2 construct is generated by transposition using the Bac-to-Bac system (Invitrogen). The expression of recombinant protein is carried out by infection of Spodoptera frugiperda Sf9 cells (Invitrogen) in 5 L Wave Bioreactors (Wave Biotech). Recombinant protein is isolated from cellular extracts by binding to an SP Hitrap Fast Flow or SP Sepharose (Sigma) column, and the protein is eluted using a NaCl gradient. Partially purified extracts of MetAP2 are further purified by an AKTA FPLC over a Superdex-200 column (GE). The purity of MetAP2 protein is determined on denaturing SDS-PAGE gel. Purified MetAP2 protein is concentrated to a final concentration of 17 mg/mL or 2.5 mg/mL. The protein is stored at −78° C. in a buffer containing 10 mM HEPES pH 7.4, 150 mM NaCl, and 1 mM CoCl2 or in a buffer containing 20 mM HEPES pH 7.4, 120 mM NaCl, and 5 mM MnCl2.
The inhibition of MetAP2 is determined using a black 384-well-plate format under the following reaction conditions: 50 mM Hepes pH 7.5, 100 mM NaCl, 10 μM MnCl2 or 10 μM CoCl2, 0.005% Brij35®, 1 mM TCEP, 1% DMSO. To initiate the assay, 4 μL of 5 to 50 nM MetAP2 enzyme solution (enzyme final concentration is 2 to 20 nM) is added to each well, followed by the addition of 2 μL of the test compound (2.5-fold serial dilutions for 11 data points for each test compound) in a buffer solution containing 5% DMSO. Next, 4 μL of a substrate solution (2.5×Km of Met-AMC) is added to each well of the plate (final substrate concentration at Km value). The reaction rate is monitored by reading fluorescence at 460 nm with excitation wavelength at 330 nm for 10 to 30 minutes using a fluorescence plate reader. The results for each well are expressed as percent inhibition and calculated using the equation: […]

[4] = target: T1, MetAP2; experiment: MetAP2 cellular activity: Western blotting of NMet-14-3-3γ in HUVEC cells; type: cell-based; design: host or cells: HUVEC; conditions: 24 hours, ratio of unprocessed N-Met14-3-3γ over β-actin, read-out: MetAP2 Cell pEC50 (converted)
Description: HUVEC cells (Lonza) are seeded in 96-well tissue culture microplates and cultured for 24 hours prior to addition of test compounds (11 point range of serial dilutions) or DMSO vehicle. After 24 hours, whole cell extracts are prepared by lysing cells in cell extraction buffer (Cell Signaling) containing protease and phosphatase inhibitors (Calbiochem). Insoluble material is removed by centrifugation and samples are diluted and boiled in SDS-PAGE buffer. Proteins are resolved by SDS-PAGE and transferred to PVDF membranes. Membranes are blocked then incubated with the appropriate primary antibodies, NMet-14-3-3γ (Novus) and β-actin (Sigma), followed by incubation with secondary IRDye 680- or 800CW-conjugated antibodies (Li-Cor). Membranes are scanned on the Odyssey (Li-Cor) and signals corresponding to N-Met14-3-3γ and β-actin are quantified using LiCor software. Compound EC50s are obtained by curve-fitting the ratios of unprocessed N-Met14-3-3γ protein signal over β-actin protein signal using XLfit4 Microsoft Excel curve-fitting software and are reported as pEC50, i.e., −log(EC50), where EC50 is the molar concentration at 50% effective (maximal) response.
TABLE 1 lists MetAP2 inhibition for some of the compounds shown in the examples, where larger pIC50 and pEC50 values represent higher potency. The compounds shown in TABLE 1 were tested in accordance with the enzyme assay (pIC50) described in the specification beginning at page 35, in which the MetAP2 enzyme is complexed with cobalt or manganese ions, and in accordance with the cellular assay (pEC50) described in the specification beginning at page 36.

[5] = MetAP2 enzyme complexed with cobalt ions, read-out: MetAP2 Co pIC50 (converted)

T1 sequence (P50579 whole entry): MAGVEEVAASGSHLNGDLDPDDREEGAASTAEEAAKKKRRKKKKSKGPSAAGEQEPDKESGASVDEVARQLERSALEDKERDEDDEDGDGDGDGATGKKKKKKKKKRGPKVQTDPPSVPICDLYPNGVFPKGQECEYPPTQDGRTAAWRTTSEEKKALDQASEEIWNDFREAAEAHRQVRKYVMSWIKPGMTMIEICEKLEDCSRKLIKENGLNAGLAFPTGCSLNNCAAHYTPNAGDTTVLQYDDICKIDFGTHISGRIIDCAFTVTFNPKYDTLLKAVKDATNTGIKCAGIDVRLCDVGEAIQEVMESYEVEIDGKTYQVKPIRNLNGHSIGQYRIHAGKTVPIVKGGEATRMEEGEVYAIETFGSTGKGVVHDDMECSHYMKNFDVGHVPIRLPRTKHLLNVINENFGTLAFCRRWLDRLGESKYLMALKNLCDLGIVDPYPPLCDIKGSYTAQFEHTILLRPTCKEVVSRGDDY

IC50 ([3]; MetAP2 enzyme complexed with manganese ions, read-out: MetAP2 Mn pIC50 (converted)) | Compound | BWL ([1]; 3 mg/kg) | GHb (glycated hemoglobin) ([2]; control 6.8 ± 0.4) | PG (plasma glucose) ([2]; control 436.6 ± 64.4) | IC50 [3, 5] | EC50 [4] | BWL ([1]; 1 mg/kg)
200 nM | CO[C@@H]1[C@H](OCCP(=O)(c2ccccc2)c2ccccc2)CC[C@]2(CO2)[C@H]1[C@@]1(C)O[C@@H]1CC=C(C)C [Example 1, (2-(((3R,4S,5S,6R)-5-methoxy-4-((2R,3R)-2-methyl-3-(3-methylbut-2-en-1-yl)oxiran-2-yl)-1-oxaspiro[2.5]octan-6-yl)oxy)ethyl)diphenylphosphine oxide] | 18% | 5.6 ± 0.4 % | 296.5 ± 77.4 mg/dL | 44.7 nM | 4.79 nM | 
 | CO[C@@H]1[C@H](OCCP(=O)(OC)OC)CC[C@]2(CO2)[C@H]1[C@@]1(C)O[C@@H]1CC=C(C)C [Example 4, dimethyl (2-(((3R,4S,5S,6R)-5-methoxy-4-((2R,3R)-2-methyl-3-(3-methylbut-2-en-1-yl)oxiran-2-yl)-1-oxaspiro[2.5]octan-6-yl)oxy)ethyl)phosphonate] |  |  |  |  | 3.47 nM | 
 | CCOP(=O)(CCO[C@@H]1CC[C@]2(CO2)[C@@H]([C@@]2(C)O[C@@H]2CC=C(C)C)[C@@H]1OC)OCC [Example 5, diethyl (2-(((3R,4S,5S,6R)-5-methoxy-4-((2R,3R)-2-methyl-3-(3-methylbut-2-en-1-yl)oxiran-2-yl)-1-oxaspiro[2.5]octan-6-yl)oxy)ethyl)phosphonate] |  |  |  | 97.7 nM | 6.17 nM | 18%
 | CO[C@@H]1[C@H](OCCP(=O)(c2ccc(C)cc2)c2ccc(C)cc2)CC[C@]2(CO2)[C@H]1[C@@]1(C)O[C@@H]1CC=C(C)C [Example 2, (2-(((3R,4S,5S,6R)-5-methoxy-4-((2R,3R)-2-methyl-3-(3-methylbut-2-en-1-yl)oxiran-2-yl)-1-oxaspiro[2.5]octan-6-yl)oxy)ethyl)di-p-tolylphosphine oxide] |  |  |  |  | 6.61 nM | 
